According to PubChem BioAssay AID328 (DTP/NCI, 2004):
Where “and” joins values, the source holds several entries; their conditions need not be identical. Equal entries are not always repeated. Toxic doses and inconclusive results are not listed. Starred links: 1 amine or outer side, 2 acyl side, 3 side chain; linkers in the order of their positions; H or OH if unused. Positions of bridges follow the written chain, without caps; N, C: chain ends. Non-standard residues stand in square brackets, D forms with d. Residues, ends and D or L forms follow the SMILES beside them. Chains are numbered I, II in the order given. Actinocin(1to9) = Cc1c2oc3c(C)ccc(C(=O)[*:2])c3nc-2c(C(=O)[*:1])c(N)c1=O; X3 = O=C1CC(C(=O)[*:2])N([*:1])C1; NMeV = CN[CH](C(=O)O)C(C)C; Sar = CNCC(=O)O

System: BDF1 mice, P388 leukemia ip, median survival T/C
Assay: NCI In Vivo Anticancer Drug Screen. Data for tumor model P388 Leukemia (intraperitoneal) in B6D2F1 (BDF1) mice
Settings: endpoint: median survival time, higher = longer survival
Summary of the method: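 Vehicle-dosed animals serve as the reference; survival of compound-dosed, tumour-implanted mice is divided by it.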

[1] = dose: 100.0 mg/kg/injection, schedule: Q01DX009 (ip), vehicle: saline with Tween-80
[2] = dose: 100.0 mg/kg/injection, schedule: Q04DX003 (ip), vehicle: saline with Tween-80
[3] = dose: 200.0 mg/kg/injection, schedule: Q01DX009 (ip), vehicle: saline with Tween-80
[4] = dose: 400.0 mg/kg/injection, schedule: Q01DX009 (ip), vehicle: saline with Tween-80

Structure (SMILES): CC1=CC2C(O)(CC(CO)=CC3C4C(C)(C)C4(OC(=O)c4ccccc4)C(OC(=O)c4ccccc4)C(C)C32O)C1=O (configuration not stated)
- T/C (dose: 0.03 mg/kg/injection, schedule: Q01DX009 (ip), vehicle: Klucel (hydroxypropylcellulose) (HPC)): 95 % of control
- T/C (dose: 0.03 mg/kg/injection, schedule: Q01DX009 (ip), vehicle: saline + alcohol): 93 % of control
- T/C (dose: 0.06 mg/kg/injection, schedule: Q01DX009 (ip), vehicle: Klucel (hydroxypropylcellulose) (HPC)): 99 % of control
- T/C (dose: 0.06 mg/kg/injection, schedule: Q01DX009 (ip), vehicle: saline + alcohol): 94 % of control
- T/C (dose: 0.12 mg/kg/injection, schedule: Q01DX009 (ip), vehicle: Klucel (hydroxypropylcellulose) (HPC)): 99 % of control
- T/C (dose: 0.12 mg/kg/injection, schedule: Q01DX009 (ip), vehicle: saline + alcohol): 112 % of control
- T/C (dose: 0.25 mg/kg/injection, schedule: Q01DX009 (ip), vehicle: Klucel (hydroxypropylcellulose) (HPC)): 94 % of control
- T/C (dose: 0.25 mg/kg/injection, schedule: Q01DX009 (ip), vehicle: saline + alcohol): 119 % of control
- T/C (dose: 0.5 mg/kg/injection, schedule: Q01DX009 (ip), vehicle: Klucel (hydroxypropylcellulose) (HPC)): 89 % of control
- T/C (dose: 0.5 mg/kg/injection, schedule: Q01DX009 (ip), vehicle: saline + alcohol): 119 % of control
- T/C (dose: 1.0 mg/kg/injection, schedule: Q01DX009 (ip), vehicle: Klucel (hydroxypropylcellulose) (HPC)): 110 % of control
- T/C (dose: 1.0 mg/kg/injection, schedule: Q01DX009 (ip), vehicle: saline + alcohol): 92 % of control
- T/C (dose: 3.1 micrograms/kg/injection, schedule: Q01DX009 (ip), vehicle: gum acacia): 116 % of control
- T/C (dose: 3.1 micrograms/kg/injection, schedule: Q01DX009 (ip), vehicle: saline + alcohol): 172 % of control
- T/C (dose: 3.1 micrograms/kg/injection, schedule: Q01DX009 (ip), vehicle: saline with Tween-80): 88 % of control and 118 % of control
- T/C (dose: 6.2 micrograms/kg/injection, schedule: Q01DX009 (ip), vehicle: gum acacia): 110 % of control
- T/C (dose: 6.2 micrograms/kg/injection, schedule: Q01DX009 (ip), vehicle: saline + alcohol): 118 % of control
- T/C (dose: 6.2 micrograms/kg/injection, schedule: Q01DX009 (ip), vehicle: saline with Tween-80): 119 % of control
- T/C (dose: 12.5 micrograms/kg/injection, schedule: Q01DX009 (ip), vehicle: gum acacia): 107 % of control
- T/C (dose: 12.5 micrograms/kg/injection, schedule: Q01DX009 (ip), vehicle: saline + alcohol): 110 % of control
- T/C (dose: 12.5 micrograms/kg/injection, schedule: Q01DX009 (ip), vehicle: saline with Tween-80): 98 % of control and 121 % of control
- T/C (dose: 25.0 micrograms/kg/injection, schedule: Q01DX009 (ip), vehicle: gum acacia): 108 % of control
- T/C (dose: 25.0 micrograms/kg/injection, schedule: Q01DX009 (ip), vehicle: saline + alcohol): 110 % of control
- T/C (dose: 25.0 micrograms/kg/injection, schedule: Q01DX009 (ip), vehicle: saline with Tween-80): 93 % of control
- T/C (dose: 50.0 micrograms/kg/injection, schedule: Q01DX009 (ip), vehicle: gum acacia): 110 % of control
- T/C (dose: 50.0 micrograms/kg/injection, schedule: Q01DX009 (ip), vehicle: saline + alcohol): 116 % of control
- T/C (dose: 100.0 micrograms/kg/injection, schedule: Q01DX009 (ip), vehicle: gum acacia): 105 % of control
- T/C (dose: 100.0 micrograms/kg/injection, schedule: Q01DX009 (ip), vehicle: saline + alcohol): 110 % of control
- T/C (dose: 100.0 micrograms/kg/injection, schedule: Q01DX009 (ip), vehicle: saline with Tween-80): 104 % of control
- T/C (dose: 200.0 micrograms/kg/injection, schedule: Q01DX009 (ip), vehicle: gum acacia): 110 % of control
- T/C (dose: 200.0 micrograms/kg/injection, schedule: Q01DX009 (ip), vehicle: saline + alcohol): 150 % of control
- T/C (dose: 200.0 micrograms/kg/injection, schedule: Q01DX009 (ip), vehicle: saline with Tween-80): 107 % of control and 116 % of control
- T/C (dose: 400.0 micrograms/kg/injection, schedule: Q01DX009 (ip), vehicle: saline + alcohol): 116 % of control
- T/C (dose: 800.0 micrograms/kg/injection, schedule: Q01DX009 (ip), vehicle: gum acacia): 96 % of control
- T/C (dose: 800.0 micrograms/kg/injection, schedule: Q01DX009 (ip), vehicle: saline + alcohol): 96 % of control
- T/C (dose: 800.0 micrograms/kg/injection, schedule: Q01DX009 (ip), vehicle: saline with Tween-80): 98 % of control and 110 % of control

Structure (SMILES): O=C(Oc1ccc([N+](=O)[O-])cc1)c1ccc2ccccc2n1
- T/C [1]: 111 % of control
- T/C [2]: 95 % of control
- T/C [3]: 111 % of control
- T/C (dose: 200.0 mg/kg/injection, schedule: Q04DX003 (ip), vehicle: saline with Tween-80): 109 % of control
- T/C [4]: 95 % of control
- T/C (dose: 400.0 mg/kg/injection, schedule: Q04DX003 (ip), vehicle: saline with Tween-80): 90 % of control

Structure (SMILES): CCCC(C#N)(CCCl)c1ccccc1 (configuration not stated)
- T/C [1]: 100 % of control
- T/C [3]: 108 % of control
- T/C [4]: 112 % of control

Structure (SMILES): c1ccc(C2=NC(CCN3CCCCC3)(c3ccccc3)SC2CN2CCCCC2)cc1 (configuration not stated)
- T/C (dose: 50.0 mg/kg/injection, schedule: Q01DX005 (ip), vehicle: Klucel (hydroxypropylcellulose) (HPC)): 101 % of control
- T/C (dose: 100.0 mg/kg/injection, schedule: Q01DX005 (ip), vehicle: Klucel (hydroxypropylcellulose) (HPC)): 105 % of control
- T/C (dose: 200.0 mg/kg/injection, schedule: Q01DX005 (ip), vehicle: Klucel (hydroxypropylcellulose) (HPC)): 104 % of control

Structure (SMILES): CN(C)CCNc1ccc(O)c2sc3ccccc3c(=O)c12
- T/C (dose: 25.0 mg/kg/injection, schedule: Q04DX003 (ip), vehicle: saline with Tween-80): 96 % of control
- T/C (dose: 50.0 mg/kg/injection, schedule: Q04DX003 (ip), vehicle: saline with Tween-80): 109 % of control
- T/C [2]: 97 % of control

Structure (SMILES): CCCC1CC[N-]CC1.CCCC1CC[N-]CC1.CCCC1CC[N-]CC1.CCCC1CC[N-]CC1.O=C([O-])C(=O)[O-].O=C([O-])C(=O)[O-].[Cl][Rh][Cl].[Nb+5].[O-][O-].[O-][O-]
- T/C (dose: 12.5 mg/kg/injection, schedule: Q01DX009 (ip), vehicle: saline): 112 % of control
- T/C (dose: 25.0 mg/kg/injection, schedule: Q01DX009 (ip), vehicle: saline): 91 % of control and 100 % of control
- T/C (dose: 50.0 mg/kg/injection, schedule: Q01DX009 (ip), vehicle: saline): 87 % of control and 97 % of control and 98 % of control
- T/C (dose: 100.0 mg/kg/injection, schedule: Q01DX009 (ip), vehicle: saline): 87 % of control
- T/C (dose: 200.0 mg/kg/injection, schedule: Q01DX009 (ip), vehicle: saline): 99 % of control
- T/C (dose: 400.0 mg/kg/injection, schedule: Q01DX009 (ip), vehicle: saline): 91 % of control and 94 % of control

Structure (SMILES): Cc1c2oc3c(C)ccc(C(=O)NC4C(=O)NC(C(C)C)C(=O)N5CCCC5C(=O)N(C)CC(=O)N(C)C(C(C)C)C(=O)OC4C)c3nc-2c(C(=O)NC2C(=O)NC(C(C)C)C(=O)N3CC(=O)CC3C(=O)N(C)CC(=O)N(C)C(C(C)C)C(=O)OC2C)c(N)c1=O (configuration not stated) (I: TV[X3][Sar][NMeV] / II: TVP[Sar][NMeV]; ester I:1-I:C, II:1-II:C; linker I:N-II:N via Actinocin(1to9); configuration not given here)
- T/C (dose: 1.6 micrograms/kg/injection, schedule: Q01DX009 (ip), vehicle: water): 120 % of control
- T/C (dose: 4.7 micrograms/kg/injection, schedule: Q04DX003 (ip), vehicle: water): 163 % of control
- T/C (dose: 9.4 micrograms/kg/injection, schedule: Q04DX003 (ip), vehicle: water): 162 % of control
- T/C (dose: 12.5 micrograms/kg/injection, schedule: Q01DX009 (ip), vehicle: water): 172 % of control
- T/C (dose: 25.0 micrograms/kg/injection, schedule: Q01DX001 (ip), vehicle: water): 155 % of control
- T/C (dose: 25.0 micrograms/kg/injection, schedule: Q01DX009 (ip), vehicle: water): 120 % of control
- T/C (dose: 37.5 micrograms/kg/injection, schedule: Q04DX003 (ip), vehicle: water): 175 % of control
- T/C (dose: 50.0 micrograms/kg/injection, schedule: Q01DX001 (ip), vehicle: water): 155 % of control
- T/C (dose: 75.0 micrograms/kg/injection, schedule: Q04DX003 (ip), vehicle: water): 86 % of control

Structure (SMILES): CCC(C(OC(=O)Nc1ccc(Cl)c(Cl)c1)c1ccc(Cl)cc1)C(O)(C(F)(F)F)C(F)(F)F (configuration not stated)
- T/C (dose: 100.0 mg/kg/injection, schedule: Q04DX003 (ip), vehicle: Klucel (hydroxypropylcellulose) (HPC)): 100 % of control
- T/C (dose: 200.0 mg/kg/injection, schedule: Q04DX003 (ip), vehicle: Klucel (hydroxypropylcellulose) (HPC)): 95 % of control
- T/C (dose: 400.0 mg/kg/injection, schedule: Q04DX003 (ip), vehicle: Klucel (hydroxypropylcellulose) (HPC)): 91 % of control

Structure (SMILES): Cc1cccnc1N1CCNC1=O
- T/C (dose: 25.0 mg/kg/injection, schedule: Q04DX003 (ip), vehicle: saline): 90 % of control
- T/C (dose: 50.0 mg/kg/injection, schedule: Q04DX003 (ip), vehicle: saline): 90 % of control
- T/C (dose: 100.0 mg/kg/injection, schedule: Q04DX003 (ip), vehicle: saline): 100 % of control
